Patent US12006373B1, “Identification and evaluation of novel peptide ligands specific to human CD3 epsilon” (Board of Trustees of the University of Alabama, for and on …, priority 2020, dated 2024)
Each block holds one substance with its values, some of them ahead of it.

What was measured:
[1] = test system: 2PK3 mouse B lymphoma cells; conditions: varying tetramer concentrations; cells lack TCR-CD3
[2] = target: T1, CD3ε expressed on Jurkat cells (Homo sapiens, UniProt P07766); assay: Binding assay of peptide tetramers on Jurkat cells by flow cytometry; conditions: for Kd: peptide tetramer on Alexa Fluor 488 streptavidin, CD3ε-expressing Jurkat cells, read-out: affinity (Kd); for binding of peptide tetramers to Jurkat cells: varying tetramer concentrations, 30 minutes on ice
T1 construct: against CD3ε expressed on Jurkat cells; host or cells: Jurkat T cells (E6-1)
Procedure: The results were analyzed using FlowJo software.

[3] = target: T2, human recombinant CD3ε protein (Homo sapiens, UniProt P07766); assay: Biopanning of Ph.D.-7 phage display peptide library, sequencing of plaques; conditions: after the 5th round of biopanning, 18 out of 20 plaques; phage clone displaying the sequence
T2 construct: purchased Sino Biological
Procedure: 1.2 Biopanning: Screening of the Ph.D.-7 phage display peptide library on human recombinant CD3ε protein as the target protein was carried out according to the manufacturer's protocol with modifications. Briefly, 50 μl of a 50% aqueous suspension of Pierce protein A/G magnetic beads was washed with 1 ml of TBST washing buffer (tris-buffered saline with 0.1% tween) on a magnetic separator and blocked in blocking buffer (0.1 M NaHCO3 (pH 8.6) with 0.5% (w/v) BSA) for 1 h at 4° C. on a rotator. Two picomoles of target protein was mixed with 10^11 pfu (plaque-forming unit) of the phage library in 200 μl of TBST buffer and incubated for 15 minutes at room temperature on a rotator and then incubated with pre-washed and pre-blocked magnetic beads for 15 minutes at room temperature on a rotator. After the microbeads were washed vigorously for 15 times with 1 ml TBST, the bound phage was eluted by 1 ml of glycine buffer (0.2 M Glycine-HCl (pH 2.2)+0.1% (w/v) BSA) and neutralized by addition of 150 μl of 1 M Tris-HCl (pH 9.1). […]
1.3 DNA Sequencing of Phage Clones: After the third and fifth round of biopanning, the ssDNA of selected phage clones was harvested following the standard protocol (NEB). […] The purified DNA of each clone was sequenced by Sanger sequencing (UAB Genomics Core Laboratories) using the −96 gIII primer and analyzed using Geneious Prime 2019 software suite.

T1 sequence (P07766 23-207): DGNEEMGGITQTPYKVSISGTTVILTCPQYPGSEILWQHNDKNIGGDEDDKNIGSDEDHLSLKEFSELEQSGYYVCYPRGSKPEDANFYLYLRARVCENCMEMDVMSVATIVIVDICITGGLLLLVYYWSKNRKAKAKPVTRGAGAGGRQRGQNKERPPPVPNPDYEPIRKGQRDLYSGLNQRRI
T1 sequence (P09693 23-182 partner): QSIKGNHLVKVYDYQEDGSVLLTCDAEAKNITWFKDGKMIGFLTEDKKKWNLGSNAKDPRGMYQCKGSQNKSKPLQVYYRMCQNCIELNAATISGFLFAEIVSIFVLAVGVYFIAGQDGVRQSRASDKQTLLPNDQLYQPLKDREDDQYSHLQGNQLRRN
T1 sequence (P04234 22-171 partner): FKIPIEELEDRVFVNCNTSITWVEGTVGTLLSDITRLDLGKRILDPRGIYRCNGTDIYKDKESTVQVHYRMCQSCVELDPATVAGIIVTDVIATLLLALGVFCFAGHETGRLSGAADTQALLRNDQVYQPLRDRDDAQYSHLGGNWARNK
T1 sequence (P20963 22-164 partner): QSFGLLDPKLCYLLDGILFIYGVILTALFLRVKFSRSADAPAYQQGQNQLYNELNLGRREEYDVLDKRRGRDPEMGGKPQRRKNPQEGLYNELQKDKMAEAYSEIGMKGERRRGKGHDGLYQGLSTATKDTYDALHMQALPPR
T1 sequence (P01848 whole entry partner): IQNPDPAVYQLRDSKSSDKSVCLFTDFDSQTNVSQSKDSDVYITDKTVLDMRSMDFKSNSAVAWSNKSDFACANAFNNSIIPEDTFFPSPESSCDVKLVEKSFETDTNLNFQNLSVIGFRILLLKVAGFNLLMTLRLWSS
T1 sequence (P01850 whole entry partner): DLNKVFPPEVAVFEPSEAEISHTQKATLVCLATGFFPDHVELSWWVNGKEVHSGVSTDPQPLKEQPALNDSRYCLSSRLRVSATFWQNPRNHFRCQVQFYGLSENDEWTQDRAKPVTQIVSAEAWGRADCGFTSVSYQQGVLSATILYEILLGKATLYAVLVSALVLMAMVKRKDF
T2 sequence (P07766 23-207): as the sequence (P07766 23-207) above

Substance: FWSSPQMGGGS [SEQ ID NO: 30]-PEG6-K-biotin [anti-CD3ε peptide 11 tetramer]
binding of peptide tetramers to 2PK3 cells [1]: no specific attachment
Kd [2]: ~100 µM
binding of peptide tetramers to Jurkat cells [2]: incremental binding to the Jurkat cells in a dose-dependent manner

share of tested plaques occupied by the clone [3]: 90%
Substance: WSLGYTG [anti-CD3ε peptide 13]

Substance: WSLGYTGGGGS [SEQ ID NO: 31]-PEG6-K-biotin [anti-CD3ε peptide 13 tetramer]
binding of peptide tetramers to 2PK3 cells [1]: no specific attachment
Kd [2]: ~100 µM
binding of peptide tetramers to Jurkat cells [2]: incremental binding to the Jurkat cells in a dose-dependent manner
